For one test, the target named is T1, NR1H3 (Homo sapiens, UniProt Q13133).
T1 construct: amplification of the complete open reading frame from ATG start codon to the stop codon of drugable genes; expressed in transfected cells; host or cells: primary human bone-marrow mesenchymal progenitor cells (MPCs), adenoviral transduction (Ad5-NR1H3 with Ad-hCAR)
T1 sequence (Q13133 1-447): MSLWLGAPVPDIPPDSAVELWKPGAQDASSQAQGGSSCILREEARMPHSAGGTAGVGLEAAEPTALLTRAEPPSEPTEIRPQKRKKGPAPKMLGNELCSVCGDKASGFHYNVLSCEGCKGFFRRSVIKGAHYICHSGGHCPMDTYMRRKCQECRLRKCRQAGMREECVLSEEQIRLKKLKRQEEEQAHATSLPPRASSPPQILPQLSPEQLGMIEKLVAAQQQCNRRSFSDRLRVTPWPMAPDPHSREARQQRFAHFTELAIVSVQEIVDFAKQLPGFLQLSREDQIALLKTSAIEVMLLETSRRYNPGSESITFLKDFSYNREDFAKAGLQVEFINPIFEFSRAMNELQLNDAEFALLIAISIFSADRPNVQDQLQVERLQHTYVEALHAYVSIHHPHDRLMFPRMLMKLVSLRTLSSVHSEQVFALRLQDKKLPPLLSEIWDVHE
Nature of the test: Alkaline phosphatase (AP) assay in MPCs infected with Ad-NR1H3 and treated with ligand. The test is classed as cell-based. On the procedure:
Cellular AP activity is determined 6 days after the infection (or ligand addition—see below). The principle of the assays is depicted in FIG. 2. Mesenchymal stem cells derived from bone marrow are infected with the FLeXSelect™ cDNA library viruses in the presence of Ad5C15-hCAR or Ad5C20-hCAR virus. Six days after the start of infection or treatment with a ligand, endogenous alkaline phosphatase activity is measured following addition of 4-methylumbelliferyl […] (MUP) substrate.
The stocks of the Ad-control-viruses are generated in 96 well plates (control plate). The 2 μl volume corresponds to a theoretical MOI of 5000. Controls are: P1=Ad-BMP2; P2=Ad-H4-2; P3=Ad-H4-291; N1=Ad-LacZ; N2=Ad-empty; N3=Ad-eGFP. Up-regulation of alkaline phosphatase is read at 6 days post infection (6 dpi): 15 μl 4-Methylumbelliferyl-phosphate (MUP, Sigma) is added to each well, the plates are incubated for 15 min at 37° C. and monitored for AP activity using a fluorescence plate reader (Fluostar, BMG).
These dose-response curves are depicted in FIG. 5. […] MPCs are seeded on day 0 at 1000 cells per well of a 384 well plate and co-infected the next day using AdC51-hCAR (MOI 250) and different MOIs of Ad5-NR1H3 (MOI 12000, 4000, 1333, 444).
After 6 days, medium is removed and replaced with fresh medium containing the same concentrations of the compound GW3965. Readouts of AP activity are performed at several time points after the start of the experiment, typically after 7, 10 and 13 days.
After 6 days, medium is removed and replaced with fresh medium containing the same concentrations of the compound APD.

Another test addresses T2, NR1H2 (Homo sapiens, UniProt P55055).
T2 construct: amplification of the complete open reading frame from ATG start codon to the stop codon of drugable genes; expressed in transfected cells; host or cells: primary human bone-marrow MPCs, adenoviral transduction (Ad5-NR1H2 with Ad-hCAR)
T2 sequence (P55055 1-460): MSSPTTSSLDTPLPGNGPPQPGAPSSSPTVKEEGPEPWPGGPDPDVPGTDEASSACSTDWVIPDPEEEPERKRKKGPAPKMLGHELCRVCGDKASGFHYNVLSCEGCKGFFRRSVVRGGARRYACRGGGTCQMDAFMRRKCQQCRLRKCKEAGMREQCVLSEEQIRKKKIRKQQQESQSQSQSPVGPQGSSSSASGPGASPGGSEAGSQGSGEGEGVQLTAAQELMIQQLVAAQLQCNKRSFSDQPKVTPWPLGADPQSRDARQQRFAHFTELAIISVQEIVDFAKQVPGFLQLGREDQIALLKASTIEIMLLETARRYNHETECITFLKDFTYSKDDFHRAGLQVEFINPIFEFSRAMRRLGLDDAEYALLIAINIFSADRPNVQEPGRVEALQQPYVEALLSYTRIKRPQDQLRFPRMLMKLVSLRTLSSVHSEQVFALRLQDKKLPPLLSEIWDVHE
Nature of the test: Alkaline phosphatase (AP) assay in MPCs infected with Ad-NR1H2 and treated with ligand. The test is classed as cell-based. The settings on record: MPCs infected with Ad-NR1H2, increasing ligand concentrations, MUP readout after 7, 10 and 13 days. As to the method:
(§1) After 6 days, medium is removed and replaced with fresh medium containing the same concentrations of the compound T0901317. Readouts of AP activity are performed at several time points after the start of the experiment, typically after 7, 10 and 13 days. Up-regulation of alkaline phosphatase activity is read as follows: medium is removed from the monolayers, 15 μl MUP is added to each well, the plates are incubated for 15 min at 37° C. and then read for AP activity using a fluorescence plate reader (Fluostar, BMG).
as §1, with “MPCs are seeded on day 0 at 1000 cells per well of a 384 well plate and co-infected the next day using AdC51-hCAR (MOI 250) and different MOIs of Ad5-NR1H2 (MOI 2000, 666). On day 1, 9 concentrations (1.52E-9M, 4.57E-9M, 1.37E-8M, 4.12E-8M, 1.23E-7M, 3.7E-7M, 1.11E-6M, 3.33E-6M, 1E-5M) of the compound GW3965 with fixed vehicle concentration (DMSO at final concentration of 0.161%) are added to the wells. After” for “After”, “GW3965.” for “T0901317.”
After 6 days, medium is removed and replaced with fresh medium containing the same concentrations of the compound APD. Readouts of AP activity are performed at several time points after the start of the experiment, typically after 7, 10 and 13 days. Up-regulation of alkaline phosphatase activity is read as follows: medium is removed from the monolayers, 15 μl MUP is added to each well, the plates are incubated for 15 min at 37° C. and then read for AP activity using a fluorescence plate reader (Fluostar, BMG).

Take `O=S(=O)(c1ccccc1)N(CC(F)(F)F)c1ccc(C(O)(C(F)(F)F)C(F)(F)F)cc1` [T0901317]: the “induction of AP activity in MPC isolates from 4 different donors” value on NR1H3 (Ad-NR1H3 MOI 2500 + T0901317 at different concentrations, 6 days) was “induce AP activity to similar extents”. In addition, the “up-regulation of endogenous alkaline phosphatase (AP) activity” value on NR1H3 (MPCs infected with Ad-NR1H3, increasing ligand concentrations, MUP fluorescence readout) is given as “dose-dependently increase”. Besides, the “up-regulation of alkaline phosphatase (AP) activity” value on NR1H2 is given as “dose-response relation”.

Source of the values: patent US20060014231A1, “Methods and compositions to promote bone homeostasis” (priority 2004, published 2006).
